What all share (experiment): NCI-60 cell line screen, 48 h
Assay [1] has as its system SN12C.
Assay [2] deals with SK-MEL-2.
Assay [3] deals with SF-295.
In assay [4] the test system is M14.
For assay [5], the system named is CCRF-CEM.
Assay [6] relates to OVCAR-8.
For assay [7], the system named is EKVX.
Assay [8] deals with 786-0.
Assay [9] relates to Malme-3M.
The subject of assay [10] is SF-539.
The subject of assay [11] is OVCAR-5.
Assay [12] has as its system TK-10.
The test system of assay [13] is DMS-114.
The test system of assay [14] is UACC-62.
For assay [15], the system named is SR.
The test system of assay [16] is DU-145.
For assay [17], the system named is BT-549.
Assay [18] relates to MDA-MB-435.
For assay [19], the system named is NCI/ADR-RES.
Assay [20] deals with RXF 393.

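1) Cells in 96-well plates. 2) Compound, 48 h, 5 concentrations. 3) Linear interpolation between surrounding doses. 4) Unreached endpoint = highest concentration. GI50 = concentration required for 50% inhibition of growth.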 The source made the active and inactive calls. No stated cut-off is given here; in the data, active = GI50 up to about 1.1 µM and inactive = higher.

Take `O=c1c2ccccc2nc(-c2cccc(Cl)c2)n1NC1OC(CO)C(O)C(O)C1O` (centres undefined): the GI50 in assay [1] is > 100 µM (inactive); in assay [2], > 100 µM (inactive); in assay [3], > 100 µM (inactive); in assay [4], > 100 µM (inactive); in [5], 73.3 µM (inactive); in assay [6] it was > 100 µM (inactive). Also, the GI50 in [7], in assay [8], in assay [9], in assay [10], in assay [11] and in assay [12] was > 100 µM (inactive) each time. Besides, the GI50 in assay [13] and in assay [14] was > 100 µM (inactive) throughout.

As for `CC(C)(C)c1ccc2c(c1)OCc1n[nH]c(n1)COc1cc(C(C)(C)C)ccc1OCCOCCO2`, the GI50 in assay [15] is 3.09 µM (inactive); in [1] it was 4.55 µM (inactive); in assay [2], 1.81 µM (inactive); in assay [3] it was 3.55 µM (inactive); in assay [4], 2.86 µM (inactive); in assay [5], 5.31 µM (inactive). The GI50 was 3.79 µM (inactive) in assay [6]; 4.3 µM (inactive) in assay [7]; 4.45 µM (inactive) in [8]; 2.07 µM (inactive) in assay [9]; 7.29 µM (inactive) in [10]; 5.96 µM (inactive) in assay [11]. Further, the GI50 in assay [16] is 6.52 µM (inactive); in assay [12] it was 2.58 µM (inactive); in assay [17], 2.81 µM (inactive); in assay [18] it was 3.21 µM (inactive); in assay [19], 3.41 µM (inactive); in assay [14] it was 2.88 µM (inactive). The GI50 in assay [20] is 1.62 µM (inactive).

Turning to `C[C@@H]1CCC([C@@H](C)[C@H]2CC[C@H]3[C@@H]4CC[C@H]5C[C@@H](O)CC[C@]5(C)[C@H]4CC[C@]23C)=NC1`, the GI50 was 12 µM (inactive) in assay [15]; 8.59 µM (inactive) in assay [1]; 14.1 µM (inactive) in assay [2]; 4.71 µM (inactive) in [3]; 4.73 µM (inactive) in assay [4]; > 41.1 µM (inactive) in assay [5]. Further, the GI50 was 8.11 µM (inactive) in assay [6]; 12.4 µM (inactive) in [7]; 8.02 µM (inactive) in [8]; 18.1 µM (inactive) in [9]; 15 µM (inactive) in [10]; 24.4 µM (inactive) in assay [11]. In addition, the GI50 in assay [16] is > 47 µM (inactive); in assay [12] it was 34.7 µM (inactive); in assay [17], 25.6 µM (inactive); in assay [18], 20.7 µM (inactive); in assay [19] it was 8.53 µM (inactive); in [14], 15.9 µM (inactive). Also, the GI50 in assay [20] was 12.2 µM (inactive).

With `O=C1CC2C(=O)C1C(C(=O)O)C2C(=O)O` (centres undefined), the GI50 in assay [15], in assay [1], in [2], in assay [3], in assay [4] and in assay [5] was > 100 µM (inactive) throughout. The GI50 in assay [6], in assay [7], in [8], in [9], in assay [10] and in assay [11] was > 100 µM (inactive) throughout. In addition, the GI50 in assay [16], in assay [12], in [17], in assay [18], in assay [19] and in [14] was > 100 µM (inactive) throughout. Moreover, in assay [20], the GI50 is > 100 µM (inactive).

Consider `S=C1SSC2N=CC=CC12` (centres undefined), for which the GI50 is 45.4 µM (inactive) in assay [15]; > 100 µM (inactive) in assay [1]; > 100 µM (inactive) in [2]; 84.9 µM (inactive) in [3]; 85.5 µM (inactive) in assay [4]; 5.66 µM (inactive) in [5]. The GI50 in assay [6] was > 100 µM (inactive); in [7], > 100 µM (inactive); in assay [8], > 100 µM (inactive); in [9] it was 56 µM (inactive); in [10], > 100 µM (inactive); in assay [11], > 100 µM (inactive). Moreover, the GI50 in assay [16] is > 100 µM (inactive); in assay [12] it was > 100 µM (inactive); in assay [17], > 100 µM (inactive); in assay [18], 17.3 µM (inactive); in assay [19], > 100 µM (inactive); in assay [14] it was 76.4 µM (inactive). Moreover, the GI50 in [20] is 46.5 µM (inactive).

Take `COC(=O)c1ccccc1CC1Cc2ccc3c(c2C1=O)CCC3` (centres undefined): the GI50 in assay [15] is 31 µM (inactive); in assay [1] it was > 100 µM (inactive); in [2], 43.9 µM (inactive); in assay [3] it was 57.1 µM (inactive); in assay [4], 39.5 µM (inactive); in assay [5], 55.8 µM (inactive). The GI50 in [6] is 49.5 µM (inactive); in assay [7], 25.6 µM (inactive); in assay [8], 80.5 µM (inactive); in [9] it was 28.8 µM (inactive); in [10] it was > 100 µM (inactive); in assay [11], > 100 µM (inactive). Besides, the GI50 was > 100 µM (inactive) in [16]; > 100 µM (inactive) in [12]; 34.7 µM (inactive) in assay [17]; 24.9 µM (inactive) in assay [18]; 28.8 µM (inactive) in [19]; 39.5 µM (inactive) in assay [14]. Also, in assay [20], the GI50 was 35.4 µM (inactive).

On to `CC(C)c1c(O)ccc2c1CCC1C(C)(C)CCCC21C` (centres undefined), for which the GI50 in assay [15] was 19.5 µM (inactive); in [1] it was 14.5 µM (inactive); in assay [2], 16.7 µM (inactive); in assay [3], 17.9 µM (inactive); in assay [4] it was 16.2 µM (inactive); in [5], 24.4 µM (inactive). For the same compound, the GI50 in [6] was 17.8 µM (inactive); in assay [7] it was 17.3 µM (inactive); in [8], 18.1 µM (inactive); in [9], 18.6 µM (inactive); in assay [10] it was 18.7 µM (inactive); in assay [11], 14.6 µM (inactive). Further, the GI50 in assay [16] was 14.8 µM (inactive); in assay [12], 20.7 µM (inactive); in assay [17] it was 18.5 µM (inactive); in assay [18], 18.6 µM (inactive); in assay [19] it was 16.9 µM (inactive); in assay [14], 15.2 µM (inactive). Also, the GI50 in assay [20] is 15.1 µM (inactive).

With `CC1=NN(C(=O)CC(=O)Nc2ccccc2Cl)C(=O)C1/N=N\c1ccc(S(=O)(=O)c2ccc(/N=N/C3C(=O)N(C(=O)CC(=O)Nc4ccccc4Cl)N=C3C)cc2)cc1` (centres undefined), the GI50 in assay [15], in [1], in [2], in [3], in [4] and in assay [5] was > 100 µM (inactive) in each case. The GI50 in [6], in assay [7], in [8], in assay [9], in assay [10] and in [11] was > 100 µM (inactive) throughout. Besides, the GI50 in assay [16], in [12], in assay [17], in assay [18], in assay [19] and in assay [14] was > 100 µM (inactive) in each case. Also, in assay [20], the GI50 is > 100 µM (inactive).

As for `N#Cc1cccc(C2ON=C(c3ccc([N+](=O)[O-])cc3)N2C23CC4CC(CC(C4)C2)C3)c1` (centres undefined), the GI50 in assay [15] was 7.71 µM (inactive); in assay [1], > 100 µM (inactive); in assay [2], 16.7 µM (inactive); in [3], 79.8 µM (inactive); in [4], 57.8 µM (inactive); in assay [5], > 100 µM (inactive). In addition, the GI50 is > 100 µM (inactive) in [6]; > 100 µM (inactive) in [7]; > 100 µM (inactive) in assay [8]; 59.7 µM (inactive) in assay [9]; > 100 µM (inactive) in assay [10]; 3.21 µM (inactive) in [11]. In addition, the GI50 in [16] was > 100 µM (inactive); in assay [12] it was > 100 µM (inactive); in [17], 82.6 µM (inactive); in assay [18], > 100 µM (inactive); in assay [19] it was > 100 µM (inactive); in assay [14], > 100 µM (inactive). Besides, the GI50 in assay [20] was 13.1 µM (inactive).

In the case of `Nc1nc(N)c(-c2ccccc2)c(C(=O)Nc2ccc(Cl)c(Cl)c2)n1`, the GI50 in [1], in assay [2], in assay [3], in [4], in assay [6] and in [7] was > 100 µM (inactive) each time. The GI50 in assay [8], in assay [9], in assay [10], in [11], in [12] and in assay [13] was > 100 µM (inactive) in each case. The GI50 in assay [14] and in [20] was > 100 µM (inactive) in each case.

Turning to `COc1ccc(OC)c(CCc2cc(OC)ccc2OC)c1`, the GI50 in [15] is 0.379 µM (active); in assay [1] it was 6.98 µM (inactive); in assay [2], 1.49 µM (inactive); in assay [3], 2.11 µM (inactive); in [4], 2.09 µM (inactive); in assay [5], 2.9 µM (inactive). The GI50 in assay [6] is 2.86 µM (inactive); in assay [7] it was 7.53 µM (inactive); in [8], 3.17 µM (inactive); in [9], 0.369 µM (active); in assay [10], 2.07 µM (inactive); in assay [11], > 8.71 µM (inactive). For the same compound, the GI50 in assay [16] is 5.19 µM (inactive); in [12] it was 3.42 µM (inactive); in assay [17] it was > 5.4 µM (inactive); in assay [18] it was 0.174 µM (active); in assay [19] it was 0.885 µM (active); in [14] it was 2.63 µM (inactive). For the same compound, the GI50 in [20] was 2.58 µM (inactive).

The values are drawn from ChEMBL document CHEMBL1201862, “PubChem BioAssay data set” (2004).
